The target in experiment [1] is T1, catalytic domain of human Bub1 (amino acids 704-1085) (Homo sapiens, UniProt O43683).
T1 construct: catalytic domain of human Bub1 (amino acids 704-1085); His6 (N); made in house; host or cells: Hi5 insect cells
The experiment can be described thus: Bub1 kinase assay (TR-FRET). It counts as biochemical. Conditions: 10 μM ATP, 60 min reaction, pH 7.5; read-out: Biological Assay 1: Bub1 kinase assay median IC50. How it is done: To this end, 100-fold concentrated compound solutions (in DMSO) were previously prepared by serial dilution (1:3.4) of 2 mM stocks in a clear low volume 384-well source microtiter plate (Greiner Bio-One, Frickenhausen, Germany), from which 50 nL of compounds were transferred into a black low volume test microtiter plate from the same supplier. […] The resulting mixture (5 μL final volume) was incubated at 22° during 60 min., and the reaction was stopped by the addition of 5 μL of an aqueous EDTA-solution (50 mM EDTA, in 100 mM HEPES pH 7.5 and 0.2% (w/v) bovine serum albumin) which also contained the TR-FRET detection reagents (0.2 μM streptavidin-XL665 [Cisbio Bioassays, Codolet, France] and 1 nM anti-phosho-Serine antibody [Merck Millipore, cat. #35-001] and 0.4 nM LANCE EU-W1024 labeled anti-mouse IgG antibody [Perkin-Elmer, product no. AD0077, alternatively a Terbium-cryptate-labeled anti-mouse IgG antibody from Cisbio Bioassays can be used]). The stopped reaction mixture was further incubated 1 h at 22° C. in order to allow the formation of complexes between peptides and detection reagents. Subsequently, the amount of product was evaluated by measurement of the resonance energy transfer from the Eu-chelate-antibody complex recognizing the Phosphoserine residue to the streptavidin-XL665 bound to the biotin moiety of the peptide. […] IC50 values were calculated by fitting the normalized inhibition data to a 4-parameter logistic equation (Minimum, Maximum, IC50, Hill; Y=Max+(Min−Max)/(1+(X/IC50)Hill)).
(Time-resolved FRET reads energy transfer from a long-lived donor to a nearby acceptor.)

In experiment [2] the test system is HeLa human cervical tumor cells. The experiment can be described thus: Proliferation assay (HeLa cell line). Type of experiment: cell-based. Conditions: 96 h, 4 days incubation, crystal violet, read-out: Biological Assay 2: Proliferation assay (HeLa cell line) median IC50. On the procedure: Human tumour cells were originally obtained from the American Type Culture Collection (ATCC), the Deutsche Sammlung von Mikroorganismen und Zellkulturen (DSMZ, German Collection of Microorganisms and Cell Cultures), or Epo GmbH Berlin. Cultivated HeLa human cervical tumor cells (DSMZ ACC-57) were plated at a density of 3000 cells/well in a 96-well multititer plate in 200 μL of growth medium supplemented 10% fetal calf serum. After 24 hours, the cells of one plate (zero-point plate) were stained with crystal violet (see below), while the medium of the other plates was supplemented with the test substances in various concentrations (0 μM, as well as in the range of 0.001-10 μM; the final concentration of the solvent dimethyl sulfoxide was adjusted to 0.1%) using a Hewlett-Packard HP D300 Digital Dispenser. The cells were incubated for 4 days in the presence of test substances. […] After three washing cycles of the fixed cells with water, the plates were dried at room temperature. The cells were stained by adding 100 μL/measuring point of a 0.1% crystal violet solution (pH 3.0). After three washing cycles of the stained cells with water, the plates were dried at room temperature. The dye was dissolved by adding 100 μL/measuring point of a 10% acetic acid solution. […] The change of cell number, in percent, was calculated by normalization of the measured values to the absorption values of the zero-point plate (=0%) and the absorption of the untreated (0 μm) cells (=100%). The IC50 values were determined by means of a 4 parameter fit.

The test system is the same in experiment [3]. The experiment can be described thus: Proliferation Assay (HeLa+Paclitaxel). It counts as cell-based. The note with it: 3 nM paclitaxel, test substance 92 hours; read-out: Biological Assay 3: Proliferation Assay (HeLa + Paclitaxel) IC50. On the procedure:
Proliferation Assay (HeLa+Paclitaxel):
Cultivated HeLa human cervical tumor cells (DSMZ ACC-57) were plated at a density of 3000 cells/well in a 96-well multititer plate in 200 μL of growth medium supplemented 10% fetal calf serum. After 24 hours, the cells of one plate (zero-point plate) were stained with crystal violet (see below). The medium of the other plates was supplemented with 3 nM of paclitaxel (Sigma-Aldrich) and the cells were incubated at 37° C. After 4 hours the test substances were added in various concentrations (0 μM, as well as in the range of 0.001-10 μM; the final concentration of the solvent dimethyl sulfoxide was adjusted to 0.1%) using a Hewlett-Packard HP D300 Digital Dispenser. The cells were incubated for another 92 hours at 37° C. in the presence of test substances. […] After three washing cycles of the fixed cells with water, the plates were dried at room temperature. The cells were stained by adding 100 μL/measuring point of a 0.1% crystal violet solution (pH 3.0). After three washing cycles of the stained cells with water, the plates were dried at room temperature. The dye was dissolved by adding 100 μL/measuring point of a 10% acetic acid solution. […] The change of cell number, in percent, was calculated by normalization of the measured values to the absorption values of the zero-point plate (=0%) and the 5 absorption of the untreated (0 μm) cells (=100%). The IC50 values were determined by means of a 4 parameter fit.

Experiment [4] concerns Bub1 kinase (histone 2A phosphorylation). The experiment can be described thus: H2A Formation-Assay (cell-based mechanistic assay, co-treatment with Nocodazole). The note with it: 16 h, Nocodazole 1 μg/ml together with test compound for 16 h; read-out: Biological Assay 4.1: H2A Formation IC50. On the procedure: Biological Assay 4.1: Formation-Assay
Cell-Based Mechanistic Assay: Changes of Phosphorylation Status of Histone 2A by Inhibition of Kinase Activity of Bub1
This assay determines the suppression of histone 2A phosphorylation by a Bub1 kinase inhibitor during co-treatment with Nocodazole. 25000 cells (cells were ordered from ATCC) were seeded in 96 well plate for 5 h at 37° C. Cells were treated with Nocodazole (1 μg/ml) and varying concentrations (between 3 nM and 10 μM) of test compounds for 16h. Cells were fixed (20 min, Fixing solution R&D), washed three times with PBS and blocked with Odyssey blocking buffer before incubating with the primary antibody against phosphorylated H2A (5 μg/ml ABIN482721) overnight at […]. After washing, secondary IRDye-labeled antibody mix with cell stains was added for 1h and washed again with PBS. Plates were scanned with LiCor Odyssey Infrared Imager CLx at 800 nm for P-H2A and at 700 nm for cell stains Draq5/Sapphire. The quotient of 800 nm and 700 nm for Nocodazole only treated cells was set as 100% and the quotient of 800 nm and 700 nm of untreated cells was set as 0%. […] The IC50 values were determined by means of a 4 parameter fit.
(§1) Histone H2A is an immediate intracellular substrate of Bub1 kinase. Determination of the phosphorylation status of Histone H2A provides a direct measure of the intracellular activity of Bub1 kinase.

Experiment [5] concerns Bub1 kinase (pre-induced phospho-histone 2A). The experiment can be described thus: H2A Abrogation-Assay (cell-based mechanistic assay, pre-treatment with Nocodazole). Conditions: read-out: Biological Assay 4.2: H2A Abrogation IC50. How it is done:
Biological Assay 4.2: Abrogation-Assay
Cell-Based Mechanistic Assay: Changes of Phosphorylation Status of Pre-Induced Phospho-Histone 2A by Inhibition of Kinase Activity of Bub1
This assay measures the inhibition of histone 2A phosphorylation, which was induced by pre-treatment of the cells with Nocodazole, by a Bub1 kinase inhibitor. 25000 cells (cells were ordered from ATCC) were seeded in 96 well plate for 5 h at 37° C. Cells were treated with Nocodazole (1 μg/ml). After 16h varying concentrations (between 3 nM and 10 μM) of test compounds were added and the cells were incubated for another 1h. Cells were fixed (20 min, Fixing solution R&D), washed three times with PBS and blocked with Odyssey blocking buffer before incubating with the primary antibody against phosphorylated H2A (5 μg/ml ABIN482721) overnight at 2-8° C. After washing, secondary IRDye-labeled antibody mix with cell stains was added for 1h and washed again with PBS. Plates were scanned with LiCor Odyssey Infrared Imager CLx at 800 nm for P-H2A and at 700 nm for cell stains Draq5/Sapphire. The quotient of 800 nm and 700 nm for Nocodazole only treated cells was set as 100% and the quotient of 800 nm and 700 nm of untreated cells was set as 0%. […] The IC50 values were determined by means of a 4 parameter fit.
as §1

The mark [6] stands for this setting: Nocodazole 1 μg/ml 16 h, then test compound 1 h.

From US10350206B2, “Benzyl substituted indazoles as BUB1 inhibitors” (Bayer Pharma Aktiengesellschaft, priority 2014, dated 2019) come the findings set out here.

Molecules are shown by their SMILES. Where two headings read alike, the source gives them in different places.

T1 sequence (O43683 704-1085): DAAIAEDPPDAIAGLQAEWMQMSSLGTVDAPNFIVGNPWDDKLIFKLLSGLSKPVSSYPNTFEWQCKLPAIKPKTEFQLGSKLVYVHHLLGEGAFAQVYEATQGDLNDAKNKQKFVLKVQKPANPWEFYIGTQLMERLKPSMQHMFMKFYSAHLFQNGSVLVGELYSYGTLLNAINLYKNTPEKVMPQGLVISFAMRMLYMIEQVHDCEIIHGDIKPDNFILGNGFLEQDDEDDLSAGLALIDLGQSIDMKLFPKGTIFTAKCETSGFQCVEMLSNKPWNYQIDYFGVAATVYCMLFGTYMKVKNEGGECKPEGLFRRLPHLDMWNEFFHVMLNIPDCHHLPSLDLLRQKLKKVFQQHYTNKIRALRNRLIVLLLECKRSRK

For `COc1cnc(-c2nn(Cc3c(F)cc(OCCO)cc3F)c3ccccc23)nc1Nc1ccncc1Cl` [Example 2-1-1, 2-{4-[(3-{4-[(3-chloropyridin-4-yl)amino]-5-methoxypyrimidin-2-yl}-1 H-indazol-1-yl)methyl]-3,5-difluorophenoxy}ethanol], the IC50 in experiment [1] came to 13 nM; in experiment [2], 4100 nM; in experiment [3], 240 nM; in experiment [4] it was 94 nM; in experiment [5] (setting [6]), 10 nM.
For `COc1cnc(-c2nn(Cc3c(F)cc(OCCO)cc3F)c3ccccc23)nc1Nc1ccnc(NC(C)=O)c1` [Example 2-1-4, N-{4-[(2-{1-[2,6-difluoro-4-(2-hydroxyethoxy)benzyl]-1H-indazol-3-yl}-5-methoxypyrimidin-4-yl)amino]pyridin-2-yl}acetamide], the IC50 in experiment [1] was 8.3 nM; in experiment [2] it was greater than 10000 nM; in experiment [3], 100 nM; in experiment [4], 8.2 nM; in experiment [5] (setting [6]) it was 150 nM.
`COc1cnc(-c2nn(Cc3c(F)cc(OCCO)cc3F)c3ccccc23)nc1Nc1ccnc(C(F)F)c1` [Example 2-1-7, 2-(4-{[3-(4-{[2-(difluoromethyl)pyridin-4-yl]amino}-5-methoxypyrimidin-2-yl)-1H-indazol-1-yl]methyl}-3,5-difluorophenoxy)ethanol]: the IC50 turned out to be 23 nM in experiment [1], 9100 nM in experiment [2], 480 nM in experiment [3] and 27 nM in experiment [4].
As to `COc1cnc(-c2nn(Cc3c(F)cc(OCCO)cc3F)c3ccccc23)nc1Nc1cc(C)ncc1C` [Example 2-1-8, 2-{4-[(3-{4-[(2,5-dimethylpyridin-4-yl)amino]-5-methoxypyrimidin-2-yl}-1H-indazol-1-yl)methyl]-3,5-difluorophenoxy}ethanol], the IC50 is 31 nM in experiment [1], greater than 10000 nM in experiment [2] and 120 nM in experiment [3].
On to `COc1cnc(-c2nn(Cc3c(F)cc(OCCO)cc3F)c3ccccc23)nc1Nc1ccncc1C1CC1` [Example 2-1-9, 2-{4-[(3-{4-[(3-cyclopropylpyridin-4-yl)amino]-5-methoxypyrimidin-2-yl}-1H-indazol-1-yl)methyl]-3,5-difluorophenoxy}ethanol], for which the IC50 in experiment [1] was determined as 13 nM.
Take `COc1cnc(C)cc1Nc1nc(-c2nn(Cc3c(F)cc(OCCO)cc3F)c3ccccc23)ncc1OC` [Example 2-1-19, 2-{3,5-difluoro-4-[(3-{5-methoxy-4-[(5-methoxy-2-methylpyridin-4-yl)amino]pyrimidin-2-yl}-1H-indazol-1-yl)methyl]phenoxy}ethanol]: the IC50 in experiment [1] is 95 nM; in experiment [2], greater than 10000 nM; in experiment [3] it was 140 nM.
For `COc1cnccc1Nc1nc(-c2nn(Cc3c(F)cc(OCCCO)cc3F)c3ccccc23)ncc1OC` [Example 2-3-2, 3-{3,5-difluoro-4-[(3-{5-methoxy-4-[(3-methoxypyridin-4-yl)amino]pyrimidin-2-yl}-1H-indazol-1-yl)methyl]phenoxy}propan-1-ol], the IC50 was determined as 10 nM in experiment [1], 1000 nM in experiment [2], 55 nM in experiment [3] and 9.8 nM in experiment [5] (setting [6]).
Take `COc1cnc(-c2nn(Cc3c(F)cc(OCCO)cc3F)c3ccccc23)nc1Nc1cc(C)nc(C)n1` [Example 2-4-1, 2-{4-[(3-{4-[(2,6-dimethylpyrimidin-4-yl)amino]-5-methoxypyrimidin-2-yl}-1H-indazol-1-yl)methyl]-3,5-difluorophenoxy}ethanol]: the IC50 in experiment [1] was 37 nM.
In the case of `COc1cnc(-c2nn(Cc3c(F)cc(OCCOC(C)=O)cc3F)c3ccccc23)nc1Nc1ccncc1` [Example 6-3-1, 2-[3,5-difluoro-4-({3-[5-methoxy-4-(pyridin-4-ylamino)pyrimidin-2-yl]-1H-indazol-1-yl}methyl)phenoxy]ethyl acetate, reference compound], the IC50 came out at 3300 nM in experiment [2], 650 nM in experiment [3] and 3600 nM in experiment [5].
On to `CCOc1cc(F)c(Cn2nc(-c3ncc(OCCOCCNC(=S)Nc4ccc(-c5c6ccc(=O)cc-6oc6cc(O)ccc56)c(C(=O)O)c4)c(Nc4ccncc4)n3)c3ccccc32)c(F)c1` [Example 6-5-1, 5-[({2-[2-({2-[1-(4-ethoxy-2,6-difluorobenzyl)-1H-indazol-3-yl]-4-(pyridin-4-ylamino)pyrimidin-5-yl}oxy)ethoxy]ethyl}carbamothioyl)amino]-2-(6-hydroxy-3-oxo-3H-xanthen-9-yl)benzoic acid, reference compound], for which, in experiment [1], the IC50 came to 21 nM.
